Results reported in patent US20220339135A1, “COMPOSITIONS AND METHODS FOR MODULATING AN INFLAMMATORY RESPONSE” (Enzychem Lifesciences Corporation, priority 2019, published 2022).

Assays:
[1] = tested on: P2Y6 receptor on THP-1 cells; test: MSU-induced P2Y6 receptor trafficking; assay type: cell-based, human
Experimental: THP-1 cells were divided into two groups: 1) MSU treated group and 2) MSU/PLAG treated group. For MSU treated group, THP-1 cells were stimulated with monosodium urate (MSU) crystal (400 μg/ml) for 0, 10, 20, 30, 40, 50, 60 minutes. For MSU/PLAG treated group, THP-1 cells were pre-incubated with PLAG (100 μg/ml) for an hour and then stimulated with monosodium urate (MSU) crystal (400 μg/ml) for 0, 10, 20, 30, 40, 50, 60 minutes. Then, cells were harvested. (A) To detect for the P2Y6 receptor on the membrane surface, cells were fixed with 4% paraformaldehyde (Sigma-Aldrich) and incubated with PBS containing 1% BSA for blocking. They were labeled with the rabbit anti-P2Y6 receptor antibody (1:200, APR-011, Alomone Labs, Jerusalem, Israel) for 1 h. The detection Ab was used with Alexa Flour 488 goat anti-rabbit IgG (Invitrogen). (B) To detect lysosomal activity, THP-1 cells were stained with Texas red conjugated-LYSO-ID® Lysosomal Detection Kit (Enzo Life Sciences, Inc.). Finally, cells were washed with 1% FBS/PBS and mounted with DAPI-containing fluorescence microscopy mounting medium (Invitrogen). Confocal samples were analyzed with a laser scanning confocal microscope (Carl Zeiss, Oberkochen, Germany). For flow cytometric analysis, cells were washed and analyzed with a FACSVerse flow cytometer (BD Biosciences). FlowJo software (Tree Star, OR, USA) was used data processing.
The specific siRNA of CD36 (sc-29995) and control siRNA (sc-37007) were purchased from Santa Cruz Biotechnology. Cells were transfected with 50 nM of either the targeting or control siRNA using HiPerFect Transfection Reagent (Qiagen, Hilden, Germany) for 24 h. The knockdown efficiency of siRNAs was confirmed by Western blot analysis.
THP-1 cells were pre-incubated with PLAG (100 μg/ml) for 1 hour and then stimulated with MSU crystal (400 μg/ml). After 15, 30, 60 min, cells were harvested. […] For flow cytometric analysis, cells were washed with 1% FBS/PBS and analyzed with a FACSVerse flow cytometer (BD Biosciences). […]

IMQ-induced psoriasis = test: IMQ-induced psoriasis-like skin inflammation in mice; assay type: in vivo; conditions: PLAG 250 mg/kg/day orally, 5 days
Description: Vaseline (Unilever, United Kingdom) was used as a control vehicle cream. […] Control (non-treated) and IMQ-treated groups were administrated orally with the same PBS daily. Psoriasis was scored by a blinded investigator using published criteria based on the following parameters: erythema, scaling, and thickening. […] The tissue sections were stained with hematoxylin and eosin (H&E). For IHC analyses, back skin serial sections were cut and mounted on charged glass slides (Superfrost Plus; Fisher Scientific, Rochester, N.Y., USA). The sections were deparaffinized and then treated with 3% hydrogen peroxide in methanol to quench the endogenous peroxidase activity. […] The sections were incubated with the primary anti-mouse IL-17 (abcam) antibody (1:100) or rat anti-mouse neutrophil (NIMP-R14, Thermo Fisher Scientific Inc.) antibody (1:100) at 4° C. overnight. […] On Day 5, mice were sacrificed and the isolated tissues were analyzed (FIG. 10A). On Day 5, mice were sacrificed and the isolated back skin tissues of control, IMQ treated and IMQ/PLAG co-treated mice were analyzed (FIG. 10B). […] The scoring of control, IMQ treated, and IMQ/PLAG co-treated mice calculated by a blinded investigator using published criteria based on the following parameters: erythema, scaling, and thickening (FIG. 10C). IMQ-treated back skin and one ear were isolated and skin thickness was measured (FIGS. 10D and 10E). […]

## CCCCC/C=C\C/C=C\CCCCCCCC(=O)OC(COC(C)=O)COC(=O)CCCCCCCCCCCCCCC (racemic) [PLAG, 1-palmitoyl-2-linoleoyl-3-acetylglycerol]
[1]; MSU/PLAG treated cells
  P2Y6 endocytosis initiates: about 10 minutes
  P2Y6 returned to the surface: about 30 minutes
[1]; control and CD36 silenced cells
  promotion of P2Y6 receptor endocytosis (flow cytometry): still observed
IMQ-induced psoriasis
  IMQ-induced psoriasis symptoms: effectively resolved
